Patent US4428963A, “Novel thiophene derivatives” (Hoffmann-La Roche Inc., priority 1983, dated 1984)

Key:
[1] = Serum lipids after intraperitoneal administration (Table III); assay type: in vivo, rat; conditions: i.p. 0.1 mmoles/kg
Protocol: (§1) Rats are prepared by fasting 48 hours and refeeding a 1% corn oil 70% glucose diet for several days (5-15). On the experimental day, rats are dosed 30 or 60 minutes before the 3 hour meal by oral intubation, or 60 minutes after the end of the 3 hour meal by intraperitoneal injection. (The dose concentrated is a mmoles/kg/5-10 ml H2 O or 1% gum arabic depending on the solubility of the compound.) Rats are sacrificed by decapitation after a 30 minute pulse consisting of: 1mCi^3 H2 O,5 μCi[U-^14 C]alanine, 12.3 mg. alanine, and 30.6 mg α-ketoglutaric acid in […], given at the end of the 3 hour meal by i.v. injection into the tail vein. Blood was collected, allowed to clot and the serum analyzed for triglyceride and cholesterol levels. The livers are quickly excised, saponified, and acidified (only for determining the rate of lipogenesis) and extracted with hexane. At this stage the lipids are either counted (to determine the rate of lipogenesis) or precipitated with digitonin, washed, and counted (to determine the rate of cholesterogenesis). The conversion of ^3 H2 O and [^14 C]alanine into fatty acids or sterols is determined in a PDS/3, Mark II liquid scintillation counting system. Data are expressed as moles ^3 H2 O nmoles converted into fatty acids and cholesterol per g liver per 30 minutes. […]
(§2) sacrificed and rates of synthesis determined.

[2] = tested on: Fatty Acid Synthesis (liver); assay: In vivo fatty acid synthesis in rat liver after oral administration (Table IV); conditions: oral 1.2 mmoles/kg
Protocol: (§3) Rats are prepared by fasting 48 hours and refeeding a 1% corn oil 70% glucose diet for several days (5-15). On the experimental day, rats are dosed 30 or 60 minutes before the 3 hour meal by oral intubation, or 60 minutes after the end of the 3 hour meal by intraperitoneal injection. (The dose concentrated is a mmoles/kg/5-10 ml H2 O or 1% gum arabic depending on the solubility of the compound.) Rats are sacrificed by decapitation after a 30 minute pulse consisting of: 1mCi^3 H2 O,5 μCi[U-^14 C]alanine, 12.3 mg. alanine, and 30.6 mg α-ketoglutaric acid in […], given at the end of the 3 hour meal by i.v. injection into the tail vein. Blood was collected, allowed to clot and the serum analyzed for triglyceride and cholesterol levels. The livers are quickly excised, saponified, and acidified (only for determining the rate of lipogenesis) and extracted with hexane. At this stage the lipids are either counted (to determine the rate of lipogenesis) or precipitated with digitonin, washed, and counted (to determine the rate of cholesterogenesis). The conversion of ^3 H2 O and [^14 C]alanine into fatty acids or sterols is determined in a PDS/3, Mark II liquid scintillation counting system. Data are expressed as moles ^3 H2 O nmoles converted into fatty acids and cholesterol per g liver per 30 minutes.
(§4) ^a Charles River CD rats (6 rats per group at 160-180 g) were fasted
(§5) 48 hours, then mealfed a high carbohydrate diet for 18 days. On the
(§6) experimental day, rats were given an oral dose (1% gum arabic or
(§7) 3amino-4-carbomethoxy-2-n-propylthiophene hydrochloride in 1% gum arabic
(§8) at the above concentrations) 30 minutes before the beginning of the meal.
(§9) At the end of the 3 hour meal, the rats were given an i.v. pulse,
sacrificed 30 minutes later and rates of synthesis were determined.
(§10) ^b Data are expressed as μmoles ^3 H2 O and nmoles
[^14 C]alanine converted into fatty acids per g liver per 30 minutes.

[3] = tested on: Fatty Acid Synthesis (liver); assay: In vivo lipogenesis in rat liver after intraperitoneal administration (Table II); conditions: i.p. 0.1 mmoles/kg; control 614 ± 66
Protocol: as §1, with “The livers are quickly excised, saponified, and acidified (only for determining the rate of lipogenesis) and extracted with hexane.” left out
as §2
(§11) ^b Data are expressed as μmoles ^3 H2 O and moles[ ^1 […]

[4] = tested on: Cholesterol Synthesis (liver); assay: In vivo cholesterol synthesis in rat liver after oral administration (Table V); conditions: for Cholesterol Synthesis, 3H2O converted: control 1.35 ± 0.04; for Cholesterol Synthesis, [14C]alanine converted: control 33.0 ± 3.1
Protocol: as §3, §4, §5, §6, §7, §8, §9
sacrificed 30 minutes later, and rates of synthesis were determined.
as §10
[^14 C]alanine converted into cholesterol per g liver per 30 minutes.

[5] = tested on: Cholesterol Synthesis (liver); assay: In vivo cholesterogenesis in rat liver after intraperitoneal administration (Table II); conditions: i.p. 0.1 mmoles/kg
Protocol: as §1, with “The livers are quickly excised, saponified, and acidified (only for determining the rate of lipogenesis) and extracted with hexane.” left out
as §2, §11

[6] = tested on: Hepatic Fatty Acid Synthesis; assay: Hepatic fatty acid synthesis after oral administration at increasing concentrations (Table VI); assay type: in vivo, rat; conditions: oral gavage, 0.4 to 1.2 mmoles/kg over 10 days
Protocol: as §3
(§12) ^a Charles River female rats were fasted 48 hr, then mealfed (8 to 11
(§13) a.m.) a high carbohydrate diet for 14 days. Rats weighing 180 to 210 g (1
(§14) in each group) were dosed by gastric gavage, with either 1% gum arabic or
(§15) Compound A in 1% gum arabic. The initial dose was 0.4 mmoles (89 mg) per
(§16) kg body weight and was increased by 0.2 mmoles (44 mg) per kg body weight
(§17) every other day. The experimental period consisted of 10 days, and the
(§18) doses given were 0.4, 0.6, 0.8, 1.0 and 1.2 mmoles per kg. All rats were
(§19) fed 1/2 hr after the oral dose. On the 10th day, following the 3 hr meal,
(§20) each rat received an intravenous injection (consisting of 5 μCi
(§21) [U^14 C]alanine, 1 mCi ^3 H2 O, 12.3 mg alanine and 30.6 mg
(§22) ketoglutaric acid) and was killed 30 min later. Livers were quickly
(§23) excised, saponified, and extracted for fatty acids or cholesterol. Data
(§24) are expressed as μmoles ^3 H2 O or nmoles [^14 C]alanine
(§25) converted into fatty acids or cholesterol per gram liver per 30 min.
(§26) Each value is the mean ± SE.

[7] = Body weight and food intake in ad libitum high fat fed rats, 63 day study (Table VIII); assay type: in vivo, rat
Protocol: (§27) As previously mentioned, the compounds disclosed and claimed herein are also useful as antiobesity agents. […] Groups of 10 rats were fed ad libitum a 10% corn oil, 60% glucose diet in accordance with the methodology described in Sullivan et al., Am. J. Clin. Nutr. 30:767-776 (1977). The effect of 4-amino-5-ethyl-3-thiophene carboxylic acid methyl ester hydrochloride on body weight, total body fat and protein was determined. The results are tabulated in Example 35 (Table VIII and Table IX) of the specification.
(§28) The antiobesity activity of 4-amino-5-ethyl-3-thiophene carboxylic acid methyl ester hydrochloride (Compound A) was evaluated in a long-term chronic experiment in which body weight gain and food consumption were monitored at least biweekly. The study was conducted on Charles River rats receiving 10% corn oil: 60% glucose (high fat) diets. For the first 32 days of this study a dose of approximately 71 mg./kg. body weight/day was given. From day 33 until the end of the study the average daily dose was increased to 130 mg./kg. body weight/day. The study included a group of rats pair-fed to the Compound A treated rats, i.e., the pair-fed animals received the same amount of food as their Compound A paired rat consumed on the previous day. Pair feeding was terminated several days after food intake in the Compound A treated groups returned to control levels. Pair-feeding to the Compound A treated group was terminated on day 22. Upon termination of the study, carcass lipid and protein levels, serum lipids and hepatic rates of fatty acid synthesis in vivo were determined. A summary of the initial and final body weights, cumulative weight gained and food consumed and average daily food intake is presented in Table VIII.
(§29) ^a Female Charles River rats (10 rats per group) were fed ad libitum
(§30) the 10% corn oil:60% glucose diet. On day 1 of the experiment rats were
(§31) divided into three groups: (1) control, (2) Compound A as a dietary
admixture (71 mg/kg body weight/day, and (3) pairfed to the Compound A
treated group. Pairfeeding was terminated on day 23. On day 33 the
concentraton of Compound A was increased to 130 mg/kg/day.

[8] = tested on: Hepatic Cholesterol Synthesis; assay: Hepatic cholesterol synthesis after oral administration at increasing concentrations (Table VI); assay type: in vivo, rat; conditions: oral gavage, 0.4 to 1.2 mmoles/kg over 10 days
Protocol: as §3, §12, §13, §14, §15, §16, §17, §18, §19, §20, §21, §22, §23, §24, §25, §26

[9] = Total body fat and protein in ad libitum high fat fed rats, 63 day study (Table IX); assay type: in vivo, rat; conditions: dietary admixture 71 then (day 33) 130 mg/kg/day, 63 days
Protocol: as §27, §28, §29, §30, §31
admixture (71 mg/kg body weight/day), and (3) pairfed to the Compound A
treated group. Pairfeeding was terminated on day 22. On day 33 the
concentration of Compound A was increased to 130 mg/kg/day.

[10] = Serum triglycerides, cholesterol, insulin and glucose after oral administration at increasing concentrations (Table VII); assay type: in vivo, rat; conditions: oral gavage, 0.4 to 1.2 mmoles/kg over 10 days
Protocol: as §3, §12, §13, §14, §15, §16, §17, §18
fed 1/2 hr after the oral dose. On the 10th day, following the 3 hr meal
as §20, §21
ketoglutaric acid) and was killed 30 min later. Blood was collected,
allowed to clot and serum analyzed.
Each value is the mean ±SE

[11] = oral 0.4 nmoles/kg (so in the source)

CCCc1scc(C(=O)OC)c1N.Cl [3-amino-4-carbomethoxy-2-n-propylthiophene hydrochloride]
Triglycerides (serum) ([1]; control 67 ± 4): 51 ± 3 mg %
Cholesterol (serum) ([1]; control 116 ± 7): 105 ± 11 mg %
Fatty Acid Synthesis, 3H2O, % of Control [2]: 36 % of Control
Fatty Acid Synthesis, [14C]alanine, % of Control [2]: 34 % of Control
Fatty Acid Synthesis, 3H2O converted ([2]; control 19.6 ± 2.4): 7.1 ± 1.7 μmoles/g/30 min.
Fatty Acid Synthesis, [14C]alanine converted ([2]; control 473 ± 76): 162 ± 60 nmoles/g/30 min.
Fatty Acid Synthesis, [14C]alanine converted [3]: 251 ± 36 nmoles/g/30 min.
Cholesterol Synthesis, 3H2O, % of Control [4, 11]: 71 % of Control
Cholesterol Synthesis, [14C]alanine, % of Control [4, 11]: 53 % of Control
Cholesterol Synthesis, 3H2O converted [4, 11]: 0.96 ± 0.05 μmoles/g/30 min.
Cholesterol Synthesis, [14C]alanine converted [4, 11]: 17.4 ± 0.9 nmoles/g/30 min.
Cholesterol Synthesis, 3H2O, % of Control ([4]; oral 1.2 mmoles/kg): 65 % of Control
Cholesterol Synthesis, [14C]alanine, % of Control ([4]; oral 1.2 mmoles/kg): 46 % of Control
Cholesterol Synthesis, 3H2O converted ([4]; oral 1.2 mmoles/kg): 0.88 ± 0.16 μmoles/g/30 min.
Cholesterol Synthesis, [14C]alanine converted ([4]; oral 1.2 mmoles/kg): 15.2 ± 3.2 nmoles/g/30 min.
Cholesterol Synthesis, 3H2O converted ([5]; control 1.36 ± 0.07): 0.85 ± 0.06 μmoles/g/30 min.
Cholesterol Synthesis, [14C]alanine converted ([5]; control 35.7 ± 3.2): 17.6 ± 1.9 nmoles/g/30 min

CCc1scc(C(=O)OC)c1N.Cl [Compound A, 4-amino-5-ethyl-3-thiophenecarboxylic acid methyl ester hydrochloride]
Fatty Acid Synthesis, 3H2O (value in parentheses, relative to control) [6]: 49%
Fatty Acid Synthesis, [14C]alanine (value in parentheses, relative to control) [6]: 42%
Fatty Acid Synthesis, 3H2O ([6]; mean ± SE, control 36.7 ± 2.7): 18.0 ± 2.3 μmoles/g/30 min
Fatty Acid Synthesis, [14C]alanine ([6]; mean ± SE, control 685 ± 59): 290 ± 49 nmoles/g/30 min
IBW (initial body weight) ([7]; baseline of Compound A group, control 215 ± 3): 214 ± 3 g
FI (food intake) ([7]; dietary admixture 71 then (day 33) 130 mg/kg/day, 63 days, control 17.7 ± 0.7, pair-fed 16.0 ± 0.4): 16.3 ± 0.4 g/day
CBWG (cumulative body weight gain) ([7]; dietary admixture 71 then (day 33) 130 mg/kg/day, 63 days, control 68 ± 6, pair-fed 66 ± 6): 41 ± 4 g
FBW (final body weight) ([7]; dietary admixture 71 then (day 33) 130 mg/kg/day, 63 days, control 282 ± 8, pair-fed 281 ± 6): 256 ± 4 g
CFC (cumulative food consumption) ([7]; dietary admixture 71 then (day 33) 130 mg/kg/day, 63 days, control 1115.1 ± 44.1, pair-fed 1008.0 ± 25.2): 1026.9 ± 25.2 g
Cholesterol Synthesis, 3H2O (value in parentheses, relative to control) [8]: 120%
Cholesterol Synthesis, [14C]alanine (value in parentheses, relative to control) [8]: 114%
Cholesterol Synthesis, 3H2O ([8]; mean ± SE, control 0.50 ± 0.06): 0.60 ± 0.06 μmoles/g/30
Cholesterol Synthesis, [14C]alanine ([8]; mean ± SE, control 13.9 ± 1.5): 15.8 ± 1.6 nmol/g/30 min
Protein, % of body weight ([9]; control 19.1 ± 1.6): 20.7 ± 1.4 % of body weight
Lipid, % of body weight ([9]; control 23.5 ± 2.2): 16.5 ± 1.7 % of body weight
Protein, total ([9]; control 54.1 ± 4.8): 52.7 ± 0.6 g
Lipid, total ([9]; control 66.8 ± 7.1): 42.1 ± 4.5 g
Cholesterol (value in parentheses, relative to control) [10]: 81%
Glucose (value in parentheses, relative to control) [10]: 97%
Insulin (value in parentheses, relative to control) [10]: 49%
Triglycerides (value in parentheses, relative to control) [10]: 62%
Insulin (serum) ([10]; mean ± SE, control 3.85 ± 0.74): 1.91 ± 0.24 ng/mL
Triglycerides (serum) ([10]; mean ± SE, control 51 ± 3): 31 ± 3 mg %
Cholesterol (serum) ([10]; mean ± SE, control 97 ± 5): 79 ± 6 mg %
Glucose (serum) ([10]; mean ± SE, control 165 ± 7): 160 ± 5 mg %
